# Target: T1, UDP-3-O-acyl-N-acetylglucosamine deacetylase (Aquifex aeolicus (strain VF5), UniProt O67648)
# T1 sequence (O67648 whole entry): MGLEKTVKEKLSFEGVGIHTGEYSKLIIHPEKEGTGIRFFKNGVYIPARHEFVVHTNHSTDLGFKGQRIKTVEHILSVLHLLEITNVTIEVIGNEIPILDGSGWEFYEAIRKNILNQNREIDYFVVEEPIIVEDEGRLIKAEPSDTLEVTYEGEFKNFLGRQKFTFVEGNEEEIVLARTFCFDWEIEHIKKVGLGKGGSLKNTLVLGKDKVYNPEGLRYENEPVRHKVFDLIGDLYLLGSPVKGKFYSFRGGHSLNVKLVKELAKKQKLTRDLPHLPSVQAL
# Assay: OctetRed
# Settings: pH 7; 25 °C
SMILES,Kd,Ki
NC[C@H](NC(=O)c1ccc(-c2ccccc2)cc1)C(=O)NO [CS249],145 nM,–
NC[C@H](NC(=O)c1ccc(-c2ccc(Br)cc2)cc1)C(=O)NO [CS250],29 nM,–
NC[C@H](NC(=O)c1ccc(C#CC#Cc2ccccc2)cc1)C(=O)NO [CS252],–,10 nM
C[C@@H](O)[C@H](NC(=O)c1ccc(C#CC#Cc2ccccc2)cc1)C(=O)NO [CS257],–,1 nM
C[C@@H](O)[C@H](NC(=O)c1ccc(-c2ccc(Br)cc2)cc1)C(=O)NO [CS258],–,1 nM
C[C@@H](O)[C@H](NC(=O)c1ccc(C#Cc2ccccc2)cc1)C(=O)NO [CS259],–,1 nM
C[C@@H](O)[C@H](NC(=O)c1ccc(-c2ccccc2)cc1)C(=O)NO [CS263],14 nM,–
O=C(NO)[C@H]1COC(c2ccc(OC(F)(F)F)c(Cl)c2)=N1 [CS270],744 nM,–
O=C(NO)[C@H]1COC(c2ccc(F)c(C(F)(F)F)c2)=N1 [CS271],443 nM,–
O=C(NO)[C@H]1COC(c2cc3cc(F)ccc3[nH]2)=N1 [CS272],772 nM,–
CCCc1ccc(-c2ccc(C3=N[C@@H](C(=O)NO)CO3)cc2)cc1 [CS274],415 nM,–
O=C(NO)c1csc(-c2ccc(OC(F)(F)F)c(Cl)c2)n1 [CS275],1820 nM,–

# Source: BindingDB's records for aid1799747 (Csar, 2012)
